These results are taken from patent US9260486B2 (The University of Vermont and State Agricultural College, priority 2012, dated 2016).

Residues, ends and D or L forms follow the SMILES beside them.

Experiment [1] concerns KCa1.1 channels. As to the kind of experiment: Inside-out patch clamp, open probability of single KCa1.1 channels in membrane patches from VSM cells reconstituted with recombinant PKG. The class given is cell-based. The following applies: rat posterior cerebral artery VSM cells, with PKG Iα and ATP. An excerpt: FIG. 4: SW:329-358 activates single KCa channels in inside-out membrane patches excised from cerebral artery myocytes.
Once we had supporting evidence that molecules carrying the knob-type ligand conformation were capable of activating PKG we set out to determine if this novel mechanism of kinase activation was functionally relevant. The high conductance calcium-activated potassium channel KCa1.1 is a well-established intracellular target of […] in vascular smooth muscle (VSM) cells. Using inside-out patch clamp configurations from freshly dissociated VSM cells from rat posterior cerebral arteries, we measured the changes of open probability (NPO) of single KCa1.1 channels in response to PKG stimulation in membrane patches excised from freshly-dissociated vascular smooth muscle cells (FIG. 4).
(The patch-clamp technique gives a direct electrical read-out from membranes.)

Experiment [2] deals with T1, PKG Iα (Bos taurus, UniProt P00516).
T1 construct: made in house
T1 sequence (P00516 1-671): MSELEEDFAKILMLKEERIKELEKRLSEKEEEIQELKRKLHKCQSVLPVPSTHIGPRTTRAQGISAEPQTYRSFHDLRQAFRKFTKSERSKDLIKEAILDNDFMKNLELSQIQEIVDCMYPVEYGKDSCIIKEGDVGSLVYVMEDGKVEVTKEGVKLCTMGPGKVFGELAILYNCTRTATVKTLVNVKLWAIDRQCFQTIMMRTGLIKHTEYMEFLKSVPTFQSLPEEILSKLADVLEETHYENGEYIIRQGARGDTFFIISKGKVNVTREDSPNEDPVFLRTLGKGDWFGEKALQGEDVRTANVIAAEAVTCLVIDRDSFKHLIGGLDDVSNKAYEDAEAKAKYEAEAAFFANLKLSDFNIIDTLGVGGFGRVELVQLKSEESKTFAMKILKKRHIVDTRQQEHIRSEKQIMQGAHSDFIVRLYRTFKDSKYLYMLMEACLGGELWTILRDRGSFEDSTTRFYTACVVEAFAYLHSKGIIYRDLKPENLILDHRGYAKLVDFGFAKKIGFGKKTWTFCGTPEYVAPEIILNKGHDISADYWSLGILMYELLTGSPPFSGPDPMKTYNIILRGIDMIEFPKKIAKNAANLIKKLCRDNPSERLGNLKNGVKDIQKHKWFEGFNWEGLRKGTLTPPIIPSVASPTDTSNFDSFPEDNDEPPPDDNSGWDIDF
The following applies: Butt et al., 1995; cited from earlier work.

For experiment [3], the target named is T1, PKG Iα. The experiment can be described thus: 32P-incorporation assay, activation of PKG Iα by SW peptides. The class given is biochemical. An excerpt:
Starting with the 29-mer peptide (329-358), covering the full length of the switch helix, an array of peptide derivatives were synthesized to study the contributions from different segments of the SW helix peptide towards the functional phenotype of PKG Iα. Circular dichroism spectroscopy confirmed that the 29-mer SW peptide adopted a helical secondary structure. […] The activity of this short peptide is surprising. To activate the kinase, this non-helical 8-mer peptide first has to adopt the active helical conformation to activate PKG. However, this finding provides critical support in favor that the confined knob/nest interaction site may serve as a novel target site for non-cyclic nucleotide driven activation of PKG.
The isolation of the SW independent from the kinase allows us to discretely probe the nest in future studies using native and non-native amino acids. Moreover, the use of the SW: 329-358 allows us to answer more fundamental questions about the nature of the regulatory and catalytic domains and the communication between the B-site and the nest. […] The structure of this inhibitor contains a β-phenyl-1,N^2-etheno group attached to the pyrimidine ring. We hypothesized previously, based upon structural observations, that the presence of this phenyl group in the syn orientation effectively blocks PBC closure and reduces the potency of the SW:329-358 in a dose-dependent manner.
Determination of activation constants was performed using a [γ-^32P]-ATP transfer assay as previously reported (Ruth et al., 1991; Tegge et al., 1995). […] Aliquots, spotted on P81 Whatman paper were subjected to scintillation counting. All experiments were performed in the presence of the PKA-specific inhibitor, PKI^5-24 (70 nM) to suppress endogenous PKA activity.

Take `Nc1nc2c(ncn2[C@@H]2O[C@@H]3COP(=O)(O)O[C@H]3[C@H]2O)c(=O)[nH]1` [cGMP]: the “KCa1.1 channel open probability (NPO)” value in experiment [1] is “significantly increased”.
As to `O=c1c2nc(Br)n([C@@H]3O[C@@H]4CO[P@@](O)(=S)O[C@H]4[C@H]3O)c2nc2[nH]c(-c3ccccc3)cn12` [Rp-PET, (RP)-8-Br-PET-cGMPS], the “affinity for PKG Iα regulatory domain binding sites relative to cGMP” value in experiment [2] is given as “higher affinity for the PHG Iα regulatory domain binding sites than cGMP”. The “effect of Rp-PET on activation constant of PKG Iα by SW:329-358” value in experiment [3] (Rp-PET titrated into activation reactions) is on record as “linear response of the activation constant to the amount of Rp-PET titrated”.
With `CC(C)C[C@H](NC(=O)[C@H](CC(N)=O)NC(=O)[C@H](C)NC(=O)[C@H](Cc1ccccc1)NC(=O)[C@H](Cc1ccccc1)NC(=O)[C@H](C)NC(=O)[C@H](C)N)C(=O)N[C@@H](CCCCN)C(=O)O` [SW:348-355] (H-AAFFANLK-OH; N-terminus and C-terminus assumed), in experiment [3] (read-out: activation relative to activation associated with cGMP, 8-mer knob peptide), the Emax came to 30%.
“SW:329-349: SW-peptide derivative with additional removal of the knob residues (DVSNKAYEDAEAKAKYEAEAA)”: in experiment [3] (under cGMP priming conditions), the “activation of PKG Iα” value is “completely inactive”.
